Test results from the supplement of paper PMC11061612.

Key:
Assay in all cases: Bliss excess, mean over the matrix (fraction); higher = more synergy
NCI-H2818 (Mesothelioma) = test system: NCI-H2818 (Mesothelioma)
Method in brief: (§1)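 After 24 hours at 37°C and 5% CO2 in 1536-well plates, cells in DMEM/F12 or RPMI plus 10% FBS received two-drug dose matrices for 72 hours. Viability came from CellTiter-Glo 2.0 luminescence and was scaled as inhibition, anchored at 0 by vehicle wells and at 1 by blank wells. Combination Emax is taken as the second-highest inhibition in the matrix, and Bliss excess as the observed combination effect less EA + EB − EA·EB, with EA and EB the single-agent effects.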

[1] = test system: HL-60 (Acute Myeloid Leukemia)
Method in brief: as §1

[2] = test system: SW837 (Colorectal Carcinoma)
Method in brief: as §1

[3] = test system: KARPAS-45 (T-Lymphoblastic Leukemia)
Method in brief: as §1

ES1 (Ewing's Sarcoma) = test system: ES1 (Ewing's Sarcoma)
Method in brief: as §1

LN-18 (Glioblastoma) = test system: LN-18 (Glioblastoma)
Method in brief: as §1

[4] = test system: SR (Other Blood Carcinomas)
Method in brief: as §1

[5] = test system: DND-41 (T-Lymphoblastic Leukemia)
Method in brief: as §1

[6] = test system: BFTC-905 (Bladder Carcinoma)
Method in brief: as §1

WM-115 (Melanoma) = test system: WM-115 (Melanoma)
Method in brief: as §1

[7] = test system: COLO-678 (Colorectal Carcinoma)
Method in brief: as §1

[8] = test system: TOV-112D (Ovarian Carcinoma)
Method in brief: as §1

CHP-212 (Neuroblastoma) = test system: CHP-212 (Neuroblastoma)
Method in brief: as §1

[9] = test system: KM12 (Colorectal Carcinoma)
Method in brief: as §1

[10] = test system: L-540 (Hodgkin's Lymphoma)
Method in brief: as §1

[11] = test system: MOLT-16 (T-Lymphoblastic Leukemia)
Method in brief: as §1

[12] = test system: PANC-08-13 (Pancreatic Carcinoma)
Method in brief: as §1

[13] = test system: K-562 (Chronic Myelogenous Leukemia)
Method in brief: as §1

[14] = test system: GR-ST (B-Lymphoblastic Leukemia)
Method in brief: as §1

[15] = test system: KCL-22 (Chronic Myelogenous Leukemia)
Method in brief: as §1

| Structure (SMILES) | Bliss excess (NCI-H2818 (Mesothelioma)) | Bliss excess [1] | Bliss excess [2] | Bliss excess [3] | Bliss excess (ES1 (Ewing's Sarcoma)) | Bliss excess (LN-18 (Glioblastoma)) | Bliss excess [4] | Bliss excess [5] | Bliss excess [6] | Bliss excess (WM-115 (Melanoma)) | Bliss excess [7] | Bliss excess [8] | Bliss excess (CHP-212 (Neuroblastoma)) | Bliss excess [9] | Bliss excess [10] | Bliss excess [11] | Bliss excess [12] | Bliss excess [13] | Bliss excess [14] | Bliss excess [15] |
| --- | --- | --- | --- | --- | --- | --- | --- | --- | --- | --- | --- | --- | --- | --- | --- | --- | --- | --- | --- | --- |
| CC(=O)Nc1cccc(-n2c(=O)n(C3CC3)c(=O)c3c(Nc4ccc(I)cc4F)n(C)c(=O)c(C)c32)c1 [Trametinib] + Cc1nc(-c2cn3c(n2)-c2ccc(-c4cnn(C(C)(C)C(N)=O)c4)cc2OCC3)n(C(C)C)n1 [Taselisib] (first compound max 1 µM, 7x7, partner max 10 µM) | -0.0103 | 0.228 | 0.05 | 0.112 | 0.0161 | 0.0432 | 0.22 | 0.164 | 0.167 | 0.048 | -0.0114 | 0.176 | 0.0363 | 0.0284 | 0.0227 | 0.006 | 0.132 | 0.151 | -0.0059 | 0.292 |
| CC1(C)CCC(CN2CCN(c3ccc(C(=O)NS(=O)(=O)c4ccc(NCC5CCOCC5)c([N+](=O)[O-])c4)c(Oc4cnc5[nH]ccc5c4)c3)CC2)=C(c2ccc(Cl)cc2)C1 [Venetoclax] + C1CN(CCC1(C(=O)N[C@@H](CCO)C2=CC=C(C=C2)Cl)N)C3=NC=NC4=C3C=CN4 [Capivasertib] (first compound max 1 µM, 7x7, partner max 3 µM) | -0.0628 | 0.0198 | -0.0256 | 0.0512 | 0.0278 | -0.0374 | -0.0142 | 0.0019 | -0.0288 | -0.0785 | -0.118 | -0.0285 | -0.0467 | -0.041 | -0.0178 | 0.0937 | -0.0608 | -0.0902 | -0.0382 | 0.0015 |
| CC1(C)CCC(CN2CCN(c3ccc(C(=O)NS(=O)(=O)c4ccc(NCC5CCOCC5)c([N+](=O)[O-])c4)c(Oc4cnc5[nH]ccc5c4)c3)CC2)=C(c2ccc(Cl)cc2)C1 [Venetoclax] + C=CCn1c(=O)c2cnc(Nc3ccc(N4CCN(C)CC4)cc3)nc2n1-c1cccc(C(C)(C)O)n1 [AZD1775] (first compound max 1 µM, partner max 1 µM) | -0.0649 | -0.0175 | 0.0009 | -0.0002 | 0.0747 | 0.0062 | 0.062 | 0.103 | 0.0078 | -0.0465 | -0.0371 | -0.0375 | -0.0497 | -0.0538 | 0.069 | 0.143 | -0.0153 | 0.0486 | -0.0109 | -0.0114 |
| CC1(C)CCC(CN2CCN(c3ccc(C(=O)NS(=O)(=O)c4ccc(NCC5CCOCC5)c([N+](=O)[O-])c4)c(Oc4cnc5[nH]ccc5c4)c3)CC2)=C(c2ccc(Cl)cc2)C1 [Venetoclax] + CCN(CCO)CCCOc1ccc2c(Nc3cc(CC(=O)Nc4cccc(F)c4)[nH]n3)ncnc2c1 [AZD2811] (first compound max 1 µM, 7x7, partner max 1 µM) | -0.0404 | -0.0385 | 0.0166 | -0.0373 | 0.0721 | -0.0146 | 0.0073 | 0.0178 | -0.01 | -0.0138 | -0.0312 | -0.0053 | -0.0499 | 0.0148 | 0.0086 | 0.0239 | -0.0269 | -0.0236 | -0.0505 | 0.0709 |
| CC1(C)CCC(CN2CCN(c3ccc(C(=O)NS(=O)(=O)c4ccc(NCC5CCOCC5)c([N+](=O)[O-])c4)c(Oc4cnc5[nH]ccc5c4)c3)CC2)=C(c2ccc(Cl)cc2)C1 [Venetoclax] + CN(C)CCCOc1ccc(-c2ccc3ncc4c(c3c2)n(C2CCOCC2)c(=O)n4C)cn1 [AZD0156] (first compound max 1 µM, 7x7, partner max 1 µM) | -0.0501 | 0.0448 | -0.0067 | -0.0096 | 0.0421 | -0.0488 | -0.0266 | 0.0278 | 0.0232 | -0.0314 | -0.0549 | -0.0341 | -0.034 | -0.0126 | 0.0137 | 0.0462 | 0.0037 | -0.0005 | -0.0363 | 0.0042 |
| CC1(C)CCC(CN2CCN(c3ccc(C(=O)NS(=O)(=O)c4ccc(NCC5CCOCC5)c([N+](=O)[O-])c4)c(Oc4cnc5[nH]ccc5c4)c3)CC2)=C(c2ccc(Cl)cc2)C1 [Venetoclax] + COc1cc(Nc2ncc3c(n2)-c2ccc(Cl)cc2C(c2c(F)cccc2OC)=NC3)ccc1C(=O)O [Alisertib] (first compound max 1 µM, 7x7, partner max 10 µM) | -0.0547 | 0.0894 | -0.0319 | 0.0544 | 0.0385 | 0.0481 | 0.013 | 0.116 | -0.0387 | -0.0539 | -0.0712 | 0.116 | -0.0654 | -0.0669 | 0.161 | 0.0623 | -0.032 | 0.0498 | 0.0444 | 0.163 |
| CC1(C)CCC(CN2CCN(c3ccc(C(=O)NS(=O)(=O)c4ccc(NCC5CCOCC5)c([N+](=O)[O-])c4)c(Oc4cnc5[nH]ccc5c4)c3)CC2)=C(c2ccc(Cl)cc2)C1 [Venetoclax] + C[C@@H]1COCCN1C2=NC(=NC(=C2)C3(CC3)[S@](=N)(=O)C)C4=C5C=CNC5=NC=C4 [AZD6738] (first compound max 1 µM, 7x7, partner max 10 µM) | -0.0458 | -0.0656 | -0.003 | 0.0449 | -0.0268 | -0.0469 | -0.0139 | 0.0191 | -0.032 | -0.119 | -0.0293 | -0.0251 | -0.0419 | 0.0189 | 0.028 | -0.0319 | -0.0482 | -0.0039 | -0.2 | -0.0088 |
| CC1(C)CCC(CN2CCN(c3ccc(C(=O)NS(=O)(=O)c4ccc(NCC5CCOCC5)c([N+](=O)[O-])c4)c(Oc4cnc5[nH]ccc5c4)c3)CC2)=C(c2ccc(Cl)cc2)C1 [Venetoclax] + C[C@@H](Nc1cc(F)cc(F)c1)c1cc(C(=O)N(C)C)cc2c(=O)cc(N3CCOCC3)oc12 [AZD8186] (first compound max 1 µM, 7x7, partner max 3 µM) | -0.0557 | 0.0249 | -0.0419 | 0.201 | -0.0374 | -0.0273 | -0.027 | 0.0053 | -0.0516 | -0.0112 | -0.0975 | -0.0205 | -0.0118 | -0.0327 | 0.027 | 0.0388 | -0.031 | 0.038 | -0.0713 | 0.0129 |
| CC1(C)CCC(CN2CCN(c3ccc(C(=O)NS(=O)(=O)c4ccc(NCC5CCOCC5)c([N+](=O)[O-])c4)c(Oc4cnc5[nH]ccc5c4)c3)CC2)=C(c2ccc(Cl)cc2)C1 [Venetoclax] + Cc1cc2ncnn2cc1Nc1ncc2c(n1)n(C1CCOCC1)c(=O)n2C [AZD7648] (first compound max 1 µM, 7x7, partner max 10 µM) | -0.0529 | 0.0582 | -0.0563 | 0.0482 | 0.0149 | 0.045 | -0.0115 | -0.0221 | -0.0081 | -0.038 | -0.0531 | -0.0253 | -0.0624 | -0.0129 | 0.0588 | 0.0704 | -0.0576 | -0.0011 | -0.0513 | 0.0097 |
| CC1(C)CCC(CN2CCN(c3ccc(C(=O)NS(=O)(=O)c4ccc(NCC5CCOCC5)c([N+](=O)[O-])c4)c(Oc4cnc5[nH]ccc5c4)c3)CC2)=C(c2ccc(Cl)cc2)C1 [Venetoclax] + Cn1cnc2c(F)c(Nc3ccc(Br)cc3Cl)c(C(=O)NOCCO)cc21 [Selumetinib] (first compound max 1 µM, 7x7, partner max 3 µM) | -0.0491 | 0.0694 | -0.0129 | 0.0372 | -0.0068 | -0.0088 | 0.0026 | -0.0048 | -0.0116 | -0.0472 | -0.0298 | -0.0086 | -0.0011 | -0.0213 | -0.0159 | 0.016 | -0.0627 | -0.0074 | -0.0318 | -0.0032 |
